Laboratory results: patent US20190290729A1, “PHARMACEUTICAL ASSOCIATION OF GROWTH FACTOR RECEPTOR AGONIST AND ADHESION PROTEIN INHIBITOR FOR CONVERTING A NEOPLASTIC CELL INTO A NON-NEOPLASTIC CELL AND USES THEREOF” (HISTIDE AG, priority 2015, published 2019)
Where no end group is shown, it is not given here.

Test system: osteosarcoma cells
Experiment: Immunofluorescence of cell adhesion and morphology on grafted polymer scaffolds (actin, vinculin, DAPI)
Format: cell-based
Conditions: polymer scaffold covalently modified with mixture of GFR-binding compound and RGD peptide, 24 hours of culture
Protocol: FIG. 9 is (a) a representation of a Quantitative Real Time PCR analysis of the expression of DMP-1, SCT and RANK-L in neoplastic cells (osteosarcoma cells) cultured on a native polymer scaffold (control) and on a polymer scaffold grafted with a mixture comprising a GFR-binding compound as defined in the present disclosure and a RGD peptide, after 24 hours of culture, (b) immunofluorescence staining of a representative neoplastic cell (osteosarcoma cells) cultured on a polymer scaffold grafted with a mixture comprising a GFR-binding compound as defined in the present disclosure (ID SEQ NO: 2) and a RGD peptide, after 24 hours of culture. The actin filaments were immunostained by using Alexa 488-phalloidin. The focal adhesions were represented by immunostaining with anti-vinculin. The nucleus was stained with DAPI and is represented by a circle in the center of the cell. Scale bar: 5 μm. (c) is a diagram representing the grafting density of a radiolabeled GFR-binding compound as defined in the present disclosure covalently grafted on a polymer scaffold and of a radiolabeled GFR-binding compound and a non-labeled RGD peptide both grafted on a polymer scaffold. The measurements were performed by using radioactivity quantification (no significant difference was observed). […]

With “SEQ ID NO: 2: GFR-binding compound as defined in the present disclosure, grafted with a RGD peptide on a polymer scaffold (KVGKASSAPTKLSAISMLYLDDMGVPTLKNYQNMVVR; also: grafted with RGD peptide on polymer scaffold)” the “morphology of neoplastic cells (immunofluorescence)” value was “Spheroid-like structures of neoplastic cells become predominant”.
